Data reported in paper PMC7113892 (Antiviral Research, 2017).

Tests used:
[1] = biological target: human RNA N7-methyltransferase (RNMT) (Homo sapiens, UniProt O43148); test: biochemical
[2] = biological target: DENV-2 NS5-RdRp (Dengue virus type 2, UniProt P14340); assay type: biochemical; conditions: 50 μM

human RNA N7-methyltransferase (RNMT), sequence (O43148 whole entry, looked up): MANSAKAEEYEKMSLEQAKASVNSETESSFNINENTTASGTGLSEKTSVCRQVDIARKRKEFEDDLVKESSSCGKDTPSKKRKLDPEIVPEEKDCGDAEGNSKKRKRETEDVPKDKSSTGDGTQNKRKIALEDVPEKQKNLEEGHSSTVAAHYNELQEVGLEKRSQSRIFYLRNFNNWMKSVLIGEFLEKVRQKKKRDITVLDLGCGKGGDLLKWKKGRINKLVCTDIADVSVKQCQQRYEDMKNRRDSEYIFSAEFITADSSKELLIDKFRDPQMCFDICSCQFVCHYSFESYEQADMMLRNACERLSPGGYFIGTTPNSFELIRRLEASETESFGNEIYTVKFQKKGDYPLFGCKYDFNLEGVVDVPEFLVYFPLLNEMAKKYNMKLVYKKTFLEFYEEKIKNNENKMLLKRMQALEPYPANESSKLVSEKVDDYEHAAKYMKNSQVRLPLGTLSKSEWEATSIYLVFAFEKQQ

Compound: Nc1ncnc2c1ncn2[C@@H]1O[C@H](C[C@@H](N)CC[C@H](N)C(=O)O)[C@@H](O)[C@H]1O [Sinefungin]
- IC50 [1]: < 50 nM
- Inhibition of RdRp activity of DENV NS5 (in words) [2]: no inhibition detected
